How the values were obtained:
pigweed [1] = experiment: Test A preemergence; assay type: in vivo, Amaranthus retroflexus; conditions: Amaranthus retroflexus, pre-emergence, 240 h, 1000 g ai/ha, 0 to 100 scale, 0 no effect, 100 complete control, approx. 10 days, read-out: Pigweed plant response rating
Method in brief: (§1)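 Visual injury scored 0–100 (100 = complete control) against untreated controls about 10 days after treatment in a greenhouse. Test chemicals, formulated with surfactant in non-phytotoxic solvent, were sprayed on soil preemergence or on 2-10 cm, one- to two-leaf plants postemergence.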

pigweed [2] = experiment: Test A postemergence; assay type: in vivo, Amaranthus retroflexus; conditions: Amaranthus retroflexus, post-emergence, 240 h, 1000 g ai/ha, 0 to 100 scale, 0 no effect, 100 complete control, read-out: Plant response rating Pigweed
Method in brief: as §1

corn [3] = experiment: Test A postemergence; assay type: in vivo, Zea mays; conditions: Zea mays, post-emergence, 240 h, 1000 g ai/ha, 0 to 100 scale, 0 no effect, 100 complete control, read-out: Plant response rating Corn
Method in brief: as §1

Italian ryegrass = experiment: Test C postemergence; assay type: in vivo, Lolium multiflorum
Method in brief: (§2)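 Preemergence: seeds sown in a loam soil–sand blend and sprayed with test chemical in a non-phytotoxic solvent mixture containing surfactant. Postemergence: plants at 2 to 18 cm (1- to 4-leaf stage) in peat-based medium, treated with the same formulation. Greenhouse 13 to 15 days, then visual rating 0 (no effect) to 100 (complete control).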

corn [4] = experiment: Test C postemergence; assay type: in vivo, Zea mays; conditions: Zea mays, post-emergence
Method in brief: as §2

giant foxtail = experiment: Test C postemergence; assay type: in vivo, Setaria faberii; conditions: Setaria faberi, post-emergence
Method in brief: as §2

johnsongrass = experiment: Test C postemergence; assay type: in vivo, Sorghum halepense
Method in brief: as §2

pigweed [5] = experiment: Test C postemergence; assay type: in vivo, Amaranthus retroflexus
Method in brief: as §2

soybean = experiment: Test C postemergence; assay type: in vivo, Glycine max
Method in brief: as §2

barnyardgrass = experiment: Test C postemergence; assay type: in vivo, Echinochloa crus-galli; conditions: Echinochloa crus-galli, post-emergence
Method in brief: as §2

waterhemp = experiment: Test C postemergence; assay type: in vivo, Amaranthus rudis
Method in brief: as §2

kochia = experiment: Test C postemergence; assay type: in vivo, Kochia scoparia; conditions: Bassia scoparia, post-emergence
Method in brief: as §2

wild oat = experiment: Test C postemergence; assay type: in vivo, Avena fatua
Method in brief: as §2

[6] = 31 g ai/ha, postemergence, visual rating, scale 0 to 100 (0 no effect, 100 complete control), 13 to 15 days

For `Clc1cnc(Oc2ccccc2-n2cc(C3CC3)nn2)nc1` [Compound 160, 5-chloro-2-[2-(4-cyclopropyl-1H-1,2,3-triazol-1-yl)phenoxy]pyrimidine], the pest or weed control at 1000 g/ha (pigweed [1]) was 100%, the pest or weed control at 1000 g/ha (pigweed [2]) was 100% and the plant injury at 1000 g/ha (corn [3]) was 100%. For the same molecule, the “Ryegrass, Italian plant response rating” value (Italian ryegrass; [6]) was 0, the pest or weed control at 16 g/ha (Italian ryegrass; Lolium multiflorum, post-emergence, 16 g ai/ha, postemergence, 0 is no effect, 100 is complete control, read-out: Plant response rating (0 to 100), Ryegrass, Italian) was 0% and the pest or weed control at 125 g/ha (Italian ryegrass; Lolium multiflorum, post-emergence, 125 g ai/ha, postemergence, visual rating, scale 0 to 100 (0 no effect, 100 complete control), read-out: Plant response rating, Ryegrass, Italian) was 5%. For the same molecule, the pest or weed control at 62 g/ha (Italian ryegrass; Lolium multiflorum, post-emergence, Postemergence, 62 g ai/ha, scale 0 to 100 (0 no effect, 100 complete control), read-out: Plant response rating, Ryegrass, Italian) was 0%, the plant injury at 16 g/ha (corn [4]; 16 g ai/ha, postemergence, 0 is no effect, 100 is complete control, read-out: Plant response rating (0 to 100), Corn) was 0% and the plant injury at 31 g/ha (corn [4]; 31 g ai/ha, postemergence, visual rating, scale 0 to 100 (0 no effect, 100 complete control), 13 to 15 days, read-out: Corn plant response rating) was 5%. It also gave a Corn plant response rating (crop injury, 0 = no effect, 100 = complete kill) at 125 g/ha (corn [4]; 125 g ai/ha, postemergence, visual rating, scale 0 to 100 (0 no effect, 100 complete control)) of 5%, a Corn plant response rating (crop injury, 0 = no effect, 100 = complete kill) at 62 g/ha (corn [4]; Postemergence, 62 g ai/ha, scale 0 to 100 (0 no effect, 100 complete control)) of 5% and a pest or weed control at 16 g/ha (giant foxtail; 16 g ai/ha, postemergence, 0 is no effect, 100 is complete control, read-out: Plant response rating (0 to 100), Foxtail, Giant) of 0%. The pest or weed control at 31 g/ha (giant foxtail; 31 g ai/ha, postemergence, visual rating, scale 0 to 100 (0 no effect, 100 complete control), 13 to 15 days, read-out: Foxtail, Giant plant response rating) was 5%, the pest or weed control at 125 g/ha (giant foxtail; 125 g ai/ha, postemergence, visual rating, scale 0 to 100 (0 no effect, 100 complete control), read-out: Plant response rating, Foxtail, Giant) was 10% and the pest or weed control at 62 g/ha (giant foxtail; Postemergence, 62 g ai/ha, scale 0 to 100 (0 no effect, 100 complete control), read-out: Plant response rating, Foxtail, Giant) was 5%. For the same molecule, the “Johnsongrass plant response rating” value (johnsongrass; [6]) was 0, the pest or weed control at 16 g/ha (johnsongrass; Sorghum halepense, post-emergence, 16 g ai/ha, postemergence, 0 is no effect, 100 is complete control, read-out: Plant response rating (0 to 100), Johnsongrass) was 0% and the pest or weed control at 125 g/ha (johnsongrass; Sorghum halepense, post-emergence, 125 g ai/ha, postemergence, visual rating, scale 0 to 100 (0 no effect, 100 complete control), read-out: Plant response rating, Johnsongrass) was 5%. For the same molecule, the pest or weed control at 62 g/ha (johnsongrass; Sorghum halepense, post-emergence, Postemergence, 62 g ai/ha, scale 0 to 100 (0 no effect, 100 complete control), read-out: Plant response rating, Johnsongrass) was 0%, the “Pigweed plant response rating” value (pigweed [5]; [6]) was 75 and the pest or weed control at 16 g/ha (pigweed [5]; Amaranthus retroflexus, post-emergence, 16 g ai/ha, postemergence, 0 is no effect, 100 is complete control, read-out: Plant response rating (0 to 100), Pigweed) was 80%. For the same molecule, the pest or weed control at 125 g/ha (pigweed [5]; Amaranthus retroflexus, post-emergence, 125 g ai/ha, postemergence, visual rating, scale 0 to 100 (0 no effect, 100 complete control), read-out: Plant response rating, Pigweed) was 85%, the pest or weed control at 62 g/ha (pigweed [5]; Amaranthus retroflexus, post-emergence, Postemergence, 62 g ai/ha, scale 0 to 100 (0 no effect, 100 complete control), read-out: Plant response rating, Pigweed) was 75% and the “Soybean plant response rating” value (soybean; [6]) was 55. It also gave a Soybean plant response rating (crop injury, 0-100 scale) at 16 g/ha (soybean; Glycine max, post-emergence, 16 g ai/ha, postemergence, 0 is no effect, 100 is complete control) of 40%, a Soybean plant response rating (crop injury, 0-100 scale) at 125 g/ha (soybean; Glycine max, post-emergence, 125 g ai/ha, postemergence, visual rating, scale 0 to 100 (0 no effect, 100 complete control), read-out: Plant response rating, Soybean) of 60% and a Soybean plant response rating (crop injury, 0-100 scale) at 62 g/ha (soybean; Glycine max, post-emergence, Postemergence, 62 g ai/ha, scale 0 to 100 (0 no effect, 100 complete control)) of 60%. The pest or weed control at 16 g/ha (barnyardgrass; 16 g ai/ha, postemergence, 0 is no effect, 100 is complete control, read-out: Plant response rating (0 to 100), Barnyardgrass) was 5%, the pest or weed control at 31 g/ha (barnyardgrass; 31 g ai/ha, postemergence, visual rating, scale 0 to 100 (0 no effect, 100 complete control), 13 to 15 days, read-out: Barnyardgrass plant response rating) was 5% and the pest or weed control at 125 g/ha (barnyardgrass; 125 g ai/ha, postemergence, visual rating, scale 0 to 100 (0 no effect, 100 complete control), read-out: Plant response rating, Barnyardgrass) was 5%. For the same molecule, the pest or weed control at 62 g/ha (barnyardgrass; Postemergence, 62 g ai/ha, scale 0 to 100 (0 no effect, 100 complete control), read-out: Plant response rating, Barnyardgrass) was 5%, the “Waterhemp plant response rating” value (waterhemp; [6]) was 35 and the pest or weed control at 16 g/ha (waterhemp; Amaranthus tuberculatus, post-emergence, 16 g ai/ha, postemergence, 0 is no effect, 100 is complete control, read-out: Plant response rating (0 to 100), Waterhemp) was 70%. For the same molecule, the pest or weed control at 125 g/ha (waterhemp; Amaranthus tuberculatus, post-emergence, 125 g ai/ha, postemergence, visual rating, scale 0 to 100 (0 no effect, 100 complete control), read-out: Plant response rating, Waterhemp) was 85%, the pest or weed control at 62 g/ha (waterhemp; Amaranthus tuberculatus, post-emergence, Postemergence, 62 g ai/ha, scale 0 to 100 (0 no effect, 100 complete control), read-out: Plant response rating, Waterhemp) was 70% and the pest or weed control at 16 g/ha (kochia; 16 g ai/ha, postemergence, 0 is no effect, 100 is complete control, read-out: Plant response rating (0 to 100), Kochia) was 85%. For the same molecule, the pest or weed control at 31 g/ha (kochia; 31 g ai/ha, postemergence, visual rating, scale 0 to 100 (0 no effect, 100 complete control), 13 to 15 days, read-out: Kochia plant response rating) was 90%, the pest or weed control at 125 g/ha (kochia; 125 g ai/ha, postemergence, visual rating, scale 0 to 100 (0 no effect, 100 complete control), read-out: Plant response rating, Kochia) was 100% and the pest or weed control at 62 g/ha (kochia; Postemergence, 62 g ai/ha, scale 0 to 100 (0 no effect, 100 complete control), read-out: Plant response rating, Kochia) was 98%. The “Oat, Wild plant response rating” value (wild oat; [6]) was 0, the pest or weed control at 16 g/ha (wild oat; Avena fatua, post-emergence, 16 g ai/ha, postemergence, 0 is no effect, 100 is complete control, read-out: Plant response rating (0 to 100), Oat, Wild) was 0% and the pest or weed control at 125 g/ha (wild oat; Avena fatua, post-emergence, 125 g ai/ha, postemergence, visual rating, scale 0 to 100 (0 no effect, 100 complete control), read-out: Plant response rating, Oat, Wild) was 0%. For the same molecule, the pest or weed control at 62 g/ha (wild oat; Avena fatua, post-emergence, Postemergence, 62 g ai/ha, scale 0 to 100 (0 no effect, 100 complete control), read-out: Plant response rating, Oat, Wild) was 0%.
